Results published in patent US9528982B2, “Bad phosphorylation determines ovarian cancer chemo-sensitivity and patient survival” (H. Lee Moffitt Cancer Center and Research Institute, Inc., priority 2011, dated 2016).

What was measured:
A2780S and A2780CP cells = experiment: Percent apoptotic nuclei after cisplatin treatment of transfected cells; assay type: cell-based
Procedure: FIGS. 4(A)-(D) is a composite figure showing modulation of BAD-protein phosphorylation status influences cisplatin sensitivity. OVCA cell lines (A) A2780S and (B) A2780CP were transfected with Flag vectors expressing wild-type BAD (WT) or BAD harboring serine (S) to alanine point mutations in serine-112, -136, or -155(S112A, S136A, S155A). These S to A phosphorylation site mutations prevent phosphorylation of the BAD protein. Transfected cells were treated with vehicle or 1 μM (A2780S) or 10 μM (A2780CP) cisplatin for 48 hours and evaluated for the presence of apoptotic nuclei. (C) Western blot showing depletion of PP2C and PKA by siRNA. Controls included a non-targeting siRNA (NT). GAPDH was used as a loading control. (D) Percent apoptotic nuclei in A2780S cells in the presence of 1 μM cisplatin after siRNA depletion of PKA and PP2C. Error bars indicate standard error of the mean.
Morphologic assessment of condensed chromatin and fragmented DNA quantified percent apoptotic nuclei. Cells were fixed in 4% paraformaldehyde, and nuclei were stained with bis-benzimide trihydrochloride (0.5 μg/ml; Molecular Probes) and quantified using fluorescence microscopy (Marchion, et al., Synergistic interaction between histone deacetylase and topoisomerase II inhibitors is mediated through topoisomerase IIbeta. Clin Cancer Res 2005; 11:8467-8475).
Cells were transfected with siRNA drawn against different BAD pathway proteins. RNA duplexes for PP2C/PPM1A (s10909 from ABI), cAMP-dependent protein kinase (PKA; 6406 from Cell Signaling Technology, Inc., Danvers, Mass.), and vectors containing mutated BAD (pFlag-600) were transfected using the Nucleofector transfection kit, with non-targeting Silencer negative control #2 siRNA (Applied Biosystems, Inc., Foster City, Calif.), according to manufacturer's protocols (Amaxa GmbH, Koeln, Del.). The role of pBAD (serine-155) in cisplatin sensitivity was further evaluated in A2780S cells by depletion of PKA and PP2C/PPM1A using siRNA.

[1] = tested on: OVCA cell lines (A2780S, A2780CP, A2008, C13); experiment: CellTiter-96 MTS proliferation assay quantifying cisplatin-resistance after serial cisplatin treatment; assay type: cell-based; conditions: cells after serial in vitro cisplatin-treatment/expansion cycles vs cells prior to serial cisplatin treatment
Excerpt: FIGS. 3(A)-(D) are a series of graphs showing BAD-protein phosphorylation is associated with platinum resistance. Cisplatin EC50 so results and percent expression of phosphorylated-BAD at serine-155 (P-BAD155), non-phosphorylated BAD (NP-BAD155), total BAD, and PP2C (PPM1A) in (A) A2780S; (B) A2780CP; (C) A2008; and (D) C13 ovarian cancer cell lines measured by MTS and immunofluorescence, respectively.
Cell lines were induced for platinum resistance. […] Both cisplatin-resistance and genome-wide expression changes were measured serially in each cell line at baseline and after 3 and 6 cisplatin-treatment/expansion cycles. Cisplatin-resistance was quantified using CellTiter-96 MTS proliferation assays (Thermo Fisher Scientific Inc., Waltham, Mass.) and analyzed genome-wide expression using Affymetrix Human U133 Plus 2.0 GeneChips (Affymetrix, Inc., Santa Clara, Calif.) as previously described (Boren, et al., MicroRNAs and their target messenger RNAs associated with ovarian cancer response to chemotherapy. Gynecol Oncol 2009; 113:249-255; Bild, et al., Oncogenic pathway signatures in human cancers as a guide to targeted therapies. Nature 2006; 439:353-357) (Gene Expression Omnibus (GEO) accession number GSE23553).

N.N.[Cl][Pt][Cl] [cisplatin, cis-diammine-dichloroplatinum] was tested, and the cisplatin-induced apoptosis (A2780S and A2780CP cells; A2780S and A2780CP transfected with BAD[S136A], BAD[S155A] vs wild-type BAD, 1 μM (A2780S) or 10 μM (A2780CP) cisplatin, 48 hours) was “increased cisplatin-induced apoptosis”, the cisplatin-induced apoptosis (A2780S and A2780CP cells; A2780S, siRNA depletion of PKA vs non-targeting control siRNA, 1 μM cisplatin) was “increased cisplatin-induced apoptosis” and the cisplatin-induced apoptosis (A2780S and A2780CP cells; A2780S, siRNA depletion of PP2C/PPM1A, 1 μM cisplatin) was “decreased cisplatin-induced apoptosis”. For the same compound, the cisplatin sensitivity (A2780S and A2780CP cells; cells transfected with BAD[S112A], 1 μM (A2780S) or 10 μM (A2780CP) cisplatin, 48 hours) was “no effect on cisplatin sensitivity” and the “cisplatin EC50” value [1] was “higher cisplatin EC50 values”.
